In patent US10907212B2, “Inhibitors of cell adhesion” (Regents of the University of Minnesota, priority 2016, dated 2021):
“Also recorded” adds a separate entry of the source. Where no end group is shown, it is not given here.

Experiments:
[1] = tested on: nectin 4 protein on NIH:OVCAR-5 cells; test: Effect of peptides on anti-Nectin-4 antibody binding to cells as determined by flow cytometry; assay type: cell-based, human; conditions: for IgG MFI: IgG control primary antibody; for nectin-4 antibody binding compared to untreated control cells (in words): flow cytometry; for Flow binding: summary table, Nectin-4 antibody binding relative to control = 100
Description: Confluent monolayers of cells were detached from 75 cm^2 tissue culture flasks using Accutase cell dissociation buffer (Innovative Cell Technologies, San Diego, Calif.), washed, and labeled with mouse IgG or mAbs against Nectin-4 or Nectin-1 (2.5 μg/10^6 cells) in Flow Buffer [phosphate buffered saline (PBS) containing 2.5% newborn calf serum and 0.02% sodium azide] for 30 min at 4° C.. Cells were washed and incubated with goat anti-mouse IgG F(ab′)2 (Jackson ImmunoResearch, West Grove, Pa.), then washed again and incubated with streptavidin-allophycocyanin conjugate (Jackson ImmunoResearch, West Grove, Pa.) for 30 min each. Cells were washed and fixed in Flow Buffer containing 1% formaldehyde and analyzed in the University of Minnesota Flow Cytometry Resource with a BD Accuri™ C6 flow cytometer (BD Biosciences, San Jose, Calif.) using the Accuri™ software.
Briefly, NIH:OVCAR-5 cells that natively express a moderate amount of nectin 4 protein were incubated for 30 minutes in 150 μg/mL of soluble peptide in DMSO. After incubation, the cells were washed, and then triple antibody stained using mouse anti-nectin 4 (or IgG control) primary antibody, biotinylated goat anti-mouse secondary antibody, and streptavidin APC tertiary antibody. Finally, utilizing the University of Minnesota flow core's Accuri C6 flow cytometer, the relative antibody binding affinity for control and peptide-treated samples was quantitated and compared. Data was collected for each of the 57 peptides generated.

[2] = tested on: ovarian cancer cell aggregation and spheroid formation; test: Spheroid assay for peptides (visual scale +1 to +5); assay type: cell-based, human; conditions: for Spheroid-24: 24 hrs, Control = 2; for Spheroid-24 / Spheroid-48: visual scale of +1 to +5; for Spheroid-48: 48 hrs, Control = 4
Description: Spheroids were formed from the NIH:OVCAR5 cell lines described above using the liquid overlay method. One milliliter of a single cell suspension was seeded at a concentration of 50,000 cells/ml in OptiMEM® media, into 24-well tissue culture plates coated with 0.5% Seakem agarose (in complete RPMI-1640). Plates were incubated at 37° C. in a humidified incubator with 5% CO2. At various time points up to 5 days, the plates were removed from the incubator and the spheroids were photographed with a Nikon CoolPix digital camera mounted on an Olympus CK2 inverted microscope with a 4× objective. The size of the spheroids was determined using the measure tool in Adobe Photoshop. The largest spheroids were quantified (20-90 spheroids/well), in a minimum of 8 wells, for a total of >300 spheroids per cell type.
The clinical relevance is that by blocking the formation of spheroids, the cells will be more sensitive to chemotherapy (which targets the single cells that proliferate more rapidly than spheroids).
The spheroid assay for peptides 1-30 were scored using a visual scale of +1 to +5. The controls were scored at +2 (24 hrs) and +4 (48 hrs). […] It may be harder to visually assess the size at 24 hours, since the spheroids are relatively small, but and perhaps some of the peptides are affecting cell division, and that is why the spheroids are smaller than the controls at 48 hours, but not 24 hrs (this can be easily assayed with an MTT assay).

[3] = Run Four, 150 μg/mL peptide, 30 minutes, Control 4 = 9,631.58
[4] = Run Four, Control 4 = 9.387504873
[5] = Run Four, antibody binding relative to Control 4 = 100
[6] = Run One, 150 μg/mL peptide, 30 minutes, Control 1 = 15,015
[7] = Run One, 150 μg/mL peptide, 30 minutes, Control 1 = 1,670
[8] = Run One, antibody binding relative to Control 1 = 100.00
[9] = Run Three, 150 μg/mL peptide, 30 minutes, Control 3 = 13,070.20
[10] = Run Three, antibody binding relative to Control 3 = 100.00

ACIVNYHMDRFKES-NH2 (listed as Homo sapiens) [Peptide 46]
N4 MFI [1, 3]: 10,569.90 | N4 MFI/IgG MFI [1, 4]: 6.623 | IgG MFI ([1]; Run Four, Control 4 = 1,026): 1596 | nectin-4 antibody binding, percent of control [1, 5]: 104.3

AEASVRGLEDQNLW-NH2 (listed as Homo sapiens) [Peptide 19]
N4 MFI [1, 6]: 7,278 | IgG MFI [1, 7]: 2,254 | N4 MFI/IgG MFI ([1]; Run One, Control 1 = 8.99): 3.23 | nectin-4 antibody binding, percent of control [1, 8]: 37.65 | nectin-4 antibody binding compared to untreated control cells (in words) ([1]; 150 μg/mL peptide): reduction in nectin-4 antibody binding; also recorded: reduced antibody binding | Flow binding [1]: 38% | spheroid size (in words) [2]: reduced spheroid size | Spheroid-24 [2]: 1 | Spheroid-48 [2]: 2

AWARVDAGEGAQEL-NH2 (listed as Homo sapiens) [Peptide 4]
N4 MFI [1, 6]: 8,687 | IgG MFI [1, 7]: 2,199 | N4 MFI/IgG MFI ([1]; Run One, Control 1 = 8.99): 3.95 | nectin-4 antibody binding, percent of control [1, 8]: 48.62 | nectin-4 antibody binding compared to untreated control cells (in words) ([1]; 150 μg/mL peptide): reduction in nectin-4 antibody binding | Flow binding [1]: 49% | Spheroid-24 [2]: 1 | Spheroid-48 [2]: 2

CKADANPPATEYHWT-NH2 (listed as Homo sapiens) [Peptide 50]
N4 MFI [1, 3]: 11,341.38 | N4 MFI/IgG MFI [1, 4]: 4.306 | IgG MFI ([1]; Run Four, Control 4 = 1,026): 2634 | nectin-4 antibody binding, percent of control [1, 5]: 101.2

CLSEGQPPPSYNWT-NH2 (listed as Homo sapiens) [Peptide 21]
N4 MFI ([1]; Run Two, 150 μg/mL peptide, 30 minutes, Control 2 = 49,491): 34,351 | N4 MFI/IgG MFI ([1]; Run Two, Control 2 = 9.46): 8.61 | IgG MFI ([1]; Run Two, Control 2 = 5,233): 3,989 | nectin-4 antibody binding, percent of control ([1]; Run Two, antibody binding relative to Control 2 = 100.00): 68.60 | Spheroid-24 [2]: 1 | Spheroid-48 [2]: 2

EAQNRTLFFKGPINY-NH2 (listed as Homo sapiens) [Peptide 52]
N4 MFI ([1]; Run Five, 150 μg/mL peptide, 30 minutes, Control 5 = 17,768.90): 20,692.13 | N4 MFI/IgG MFI ([1]; Run Five, Control 5 = 2.142155332): 2.717 | IgG MFI ([1]; Run Five, Control 5 = 8,294.87): 7,617.02 | nectin-4 antibody binding, percent of control ([1]; Run Five, antibody binding relative to Control 5 = 100): 138 | nectin-4 antibody binding compared to untreated control cells (in words) ([1]; 150 μg/mL peptide): increased nectin-4 antibody | Flow binding [1]: 138% | Spheroid-24 [2]: 1 | Spheroid-48 [2]: 2

ECRVSTFPAGSFQA-NH2 (listed as Homo sapiens) [Peptide 9]
N4 MFI [1, 6]: 8,578 | IgG MFI [1, 7]: 1,886 | N4 MFI/IgG MFI ([1]; Run One, Control 1 = 8.99): 4.55 | nectin-4 antibody binding, percent of control [1, 8]: 50.15 | nectin-4 antibody binding compared to untreated control cells (in words) ([1]; 150 μg/mL peptide): reduction in nectin-4 antibody binding | Flow binding [1]: 50% | Spheroid-48 [2]: 3

EGSPAPSVTWDTEV-NH2 (listed as Homo sapiens) [Peptide 13]
N4 MFI [1, 6]: 15,623 | IgG MFI [1, 7]: 3,720 | N4 MFI/IgG MFI ([1]; Run One, Control 1 = 8.99): 4.20 | nectin-4 antibody binding, percent of control [1, 8]: 89.19 | Spheroid-24 [2]: 1 | Spheroid-48 [2]: 2

ELALLHSKYGLHVS-NH2 (listed as Homo sapiens) [Peptide 5]
N4 MFI [1, 6]: 11,668 | IgG MFI [1, 7]: 1,711 | N4 MFI/IgG MFI ([1]; Run One, Control 1 = 8.99): 6.82 | nectin-4 antibody binding, percent of control [1, 8]: 74.61 | Spheroid-48 [2]: 3

ESLTLNVQYEPE-NH2 (listed as Homo sapiens) [Peptide 47]
N4 MFI [1, 3]: 11,949.18 | N4 MFI/IgG MFI [1, 4]: 6.679 | IgG MFI ([1]; Run Four, Control 4 = 1,026): 1789 | nectin-4 antibody binding, percent of control [1, 5]: 118.1 | Spheroid-24 [2]: 1 | Spheroid-48 [2]: 2

ESQLNLTVMAKPTN-NH2 (listed as Homo sapiens) [Peptide 39]
N4 MFI [1, 9]: 8,719.33 | N4 MFI/IgG MFI ([1]; Run Three, Control 3 = 9.83): 4.24 | IgG MFI ([1]; Run Three, Control 3 = 1330): 2056 | nectin-4 antibody binding, percent of control [1, 10]: 56.76 | nectin-4 antibody binding compared to untreated control cells (in words) ([1]; 150 μg/mL peptide): reduction in nectin-4 antibody binding | Flow binding [1]: 57%

GFIGTDVVLHCSFA-NH2 (listed as Homo sapiens) [Peptide 31]
N4 MFI [1, 9]: 15,498.21 | N4 MFI/IgG MFI ([1]; Run Three, Control 3 = 9.83): 8.83 | IgG MFI ([1]; Run Three, Control 3 = 1330): 1756 | nectin-4 antibody binding, percent of control [1, 10]: 117.05 | nectin-4 antibody binding compared to untreated control cells (in words) ([1]; 150 μg/mL peptide): increased nectin-4 antibody binding | Flow binding [1]: 117%
